Test results: patent publication EP4800015A1, “AZABICYCLO DERIVATIVE AND PREPARATION METHOD THEREFOR, AND USE” (Zhejiang Hisun Pharmaceutical Co., Ltd., priority 2023, dated 2025)
pIC50: −log10 of the molar value.

Assays:
[1] = Metabolic stability in dog liver microsomes; format: in vitro ADME; settings: dog liver microsomes 0.5 mg mL^-1, NADPH 1 mM, 0-60 min; read-out: Liver microsomal stability t1/2 (min) Dog
Procedure: (§1) The purpose of this study was to investigate the metabolic stability of the compounds of the present disclosure in human and dog liver microsomes.
(§2) The compounds were co-incubated with human (or dog) liver microsomes, and the reaction was initiated by adding coenzyme NADPH (1 mM). At 0, 5, 15, 30, and 60 minutes, 60 µL of incubation solution was removed, and 180 µL of acetonitrile containing internal standard (clopidogrel) was added to quench the reaction, the mixture was shaken for 10 seconds, centrifuged at 10000 rpm for 10 minutes, and the supernatant was taken for analysis by LC-MS/MS. The in vitro intrinsic clearance was calculated based on the elimination half-life of the test compound in the incubation system. Midazolam was used as an internal reference compound, with two parallel incubations for each. Incubation conditions are summarized in Table 6 below: Table 6 Incubation conditions for the example compounds of the present disclosure
(§3) The ratio of the peak area of analyte to internal standard (Aanalyte/AIS) was obtained from the instrument, and the remaining percentage (%Control) was calculated from the ratio of Aanalyte/AIS in non-zero time point samples to zero time samples. Ln (%Control) was plotted against incubation time and linearly fitted. The test compound clearance constant (k, min^-1) and clearance half-life (T1/2, min) were calculated using the following equations. k = −slope [formula] T1/2 = 0.693/k. [formula]

[2] = Metabolic stability in human liver microsomes; format: in vitro ADME; settings: human liver microsomes 0.5 mg mL^-1, NADPH 1 mM, 0-60 min; read-out: Liver microsomal stability t1/2 (min) Human
Procedure: as §1, §2, §3

[3] = Pharmacokinetic test in mice after intragastric administration; format: in vivo; settings: male, mouse, plasma, ICR mice, Oral (10 mg/kg); for AUC(0-t): read-out: Area under curve AUC0-t; for half-life: read-out: Half-life T1/2 (converted); for Cmax: read-out: Plasma concentration Cmax
Procedure: ICR mice were used as test animals, the plasma concentrations of the control compound HRO761 and the compounds of the present disclosure at different time points after intragastric administration were determined by LC/MS/MS method, and the pharmacokinetic characteristics of the compounds of the present disclosure in mice were studied.
ICR mice, male, 30.8 to 38.0 g, purchased from Vital River Laboratory Animal Technology Co., Ltd.
An appropriate amount of the test compound was weighed, and an appropriate amount of DMA (N,N-dimethylacetamide), 30% Solutol HS15 (30% polyethylene glycol-15 hydroxystearate), and Saline (saline) were added sequentially, the mixture was ultrasonicated and vortex mixed to prepare a 1 mg/mL dosing formulation. The ratio of DMA:30% Solutol HS15:Saline was 5:5:90 (v/v/v).
After overnight fasting, ICR mice in each test compound injection group (9 mice per group) were administered intragastrically (PO, compound dose was 10 mg/kg, administration volume was 10 mL/kg), and food was given 4 hours after administration.
About 0.1 mL of blood was collected via the orbital cavity before administration and at 0.25 h, 0.5 h, 1 h, 2 h, 4 h, 8 h, 10 h, and 24 h after administration, and whole blood samples were placed in anticoagulant tubes containing EDTA-K2. The samples were placed on ice after collection, and plasma was separated by centrifugation (centrifugation conditions: 1500 g, 10 minutes). The collected plasma was stored at -40 to -20 °C before analysis.
The content of the test compound in mouse plasma after intragastric administration was determined by LC-MS/MS.

recombinant human WRN = target: T1, recombinant human WRN (Homo sapiens, UniProt Q14191); experiment: Inhibition of WRN enzyme activity (ATPase), ADP-Glo Kinase Assay; format: biochemical; settings: WRN protein 5 nM, Flap 0.1 nM, ATP 30 µM; read-out: IC50
T1 construct: purchased BPS 101264
In short: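 ATPase activity was measured by ADP-Glo luminescence after a 10-min room-temperature reaction with 30 µM ATP and 0.1 nM Flap26 oligonucleotide substrate. The 5 nM WRN had first been exposed to compound (0.004–1000 nM) for 15 min in pH 7.5 Tris buffer with 2 mM MgCl2. IC50 values came from log-concentration regression against the DMSO control.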

RL95-2 cells = experiment: Inhibition of RL95-2 cell proliferation (CellTiter-Glo); format: cell-based; settings: Homo sapiens; RL95-2 cells (MSI-H), 120 hours
In short: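 Proliferation IC50 derived by nonlinear regression of % inhibition against log concentration, with 0.1% DMSO wells as reference. CellTiter-Glo luminescence was read after 120 h of compound exposure (10000 nM down to 1.52 nM final) at 37 °C. MSI-H RL95-2 cells seeded at 500/well in DMEM/F12 with 10% FBS the day before.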

[4] = tested on: Caco-2 monolayer cell model; experiment: Caco-2 bidirectional permeability and efflux ratio; format: in vitro ADME; settings: Caco-2, conclusion
Procedure: (§4) The bidirectional permeability and efflux ratio of the example compounds and control compound were determined in a Caco-2 monolayer cell model.
(§5) Caco-2 cells (cultured at Shanghai Medicilon Inc.) were recovered in the experiment. After the cells were in good condition, they were digested, and the cell density was adjusted (1 × 10^5 cells/cm^2). Caco-2 cells were seeded into Transwell chambers and placed in 24-well plates for cultivation. After continuous cultivation for about 21 days, TEER values were measured one day before the experiment to ensure formation of a confluent cell monolayer for transport experiments (TEER > 200 Ω·cm^2). Test compounds were diluted from 10 mM stock solutions to 10 µM concentration using transport buffer (HBSS containing BSA) (metoprolol and atenolol were set as positive compounds). For efflux determination, 0.6 mL of compound dilution solution was added to the outer well (side B), and 0.4 mL of blank transport buffer was added to the Transwell chamber. For absorption determination, 0.4 mL of transport buffer containing compound was added to the Transwell chamber, and 0.6 mL of blank transport buffer was added to the outer side. After setup, the 24-well plates were cultivated at 37 °C and 5% CO2 with 95% relative humidity for 120 minutes, and permeability of test compounds from A to B direction or B to A direction was measured, respectively, with two duplicate wells set for each direction. Liquid in Transwell chambers and 24-well plates was collected separately, 60 µL each, and 180 µL of acetonitrile (containing internal standard) was added, vortexed for 1 min, then centrifuged at 4 °C, 10000 rpm for 10 min. The supernatant was taken, filtered through a 0.22 µm membrane, and placed in vials for testing. The content of the compounds in each Transwell chamber and 24-well plate was determined by liquid chromatography-tandem mass spectrometry (LC-MS/MS). Table 4 Permeability data of compounds of the present disclosure

[5] = Caco-2 bidirectional permeability and efflux ratio; format: in vitro ADME; settings: human, Caco-2, 10 µM, 120 minutes; for efflux ratio at 120 min, 10 µM: read-out: Efflux ratio Papp(B-A)/ Papp(A-B); for Papp A→B at 120 min, 10 µM: A to B; for Papp B→A at 120 min, 10 µM: B to A
Procedure: as §4, §5

SW48 cells = experiment: Inhibition of SW48 cell proliferation (CellTiter-Glo); format: cell-based; settings: Homo sapiens; SW48 cells (MSI-H), 120 hours
In short: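 SW48 (MSI-H) cells in L-15 with 10% FBS were seeded at 500 per well, cultured overnight at 37 °C, then exposed to compound at final concentrations of 10000 nM to 1.52 nM for 120 h. Viability was read by CellTiter-Glo luminescence, with inhibition relative to 0.1% DMSO. IC50 from nonlinear regression of log concentration versus inhibition.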

T1 sequence (Q14191 whole entry): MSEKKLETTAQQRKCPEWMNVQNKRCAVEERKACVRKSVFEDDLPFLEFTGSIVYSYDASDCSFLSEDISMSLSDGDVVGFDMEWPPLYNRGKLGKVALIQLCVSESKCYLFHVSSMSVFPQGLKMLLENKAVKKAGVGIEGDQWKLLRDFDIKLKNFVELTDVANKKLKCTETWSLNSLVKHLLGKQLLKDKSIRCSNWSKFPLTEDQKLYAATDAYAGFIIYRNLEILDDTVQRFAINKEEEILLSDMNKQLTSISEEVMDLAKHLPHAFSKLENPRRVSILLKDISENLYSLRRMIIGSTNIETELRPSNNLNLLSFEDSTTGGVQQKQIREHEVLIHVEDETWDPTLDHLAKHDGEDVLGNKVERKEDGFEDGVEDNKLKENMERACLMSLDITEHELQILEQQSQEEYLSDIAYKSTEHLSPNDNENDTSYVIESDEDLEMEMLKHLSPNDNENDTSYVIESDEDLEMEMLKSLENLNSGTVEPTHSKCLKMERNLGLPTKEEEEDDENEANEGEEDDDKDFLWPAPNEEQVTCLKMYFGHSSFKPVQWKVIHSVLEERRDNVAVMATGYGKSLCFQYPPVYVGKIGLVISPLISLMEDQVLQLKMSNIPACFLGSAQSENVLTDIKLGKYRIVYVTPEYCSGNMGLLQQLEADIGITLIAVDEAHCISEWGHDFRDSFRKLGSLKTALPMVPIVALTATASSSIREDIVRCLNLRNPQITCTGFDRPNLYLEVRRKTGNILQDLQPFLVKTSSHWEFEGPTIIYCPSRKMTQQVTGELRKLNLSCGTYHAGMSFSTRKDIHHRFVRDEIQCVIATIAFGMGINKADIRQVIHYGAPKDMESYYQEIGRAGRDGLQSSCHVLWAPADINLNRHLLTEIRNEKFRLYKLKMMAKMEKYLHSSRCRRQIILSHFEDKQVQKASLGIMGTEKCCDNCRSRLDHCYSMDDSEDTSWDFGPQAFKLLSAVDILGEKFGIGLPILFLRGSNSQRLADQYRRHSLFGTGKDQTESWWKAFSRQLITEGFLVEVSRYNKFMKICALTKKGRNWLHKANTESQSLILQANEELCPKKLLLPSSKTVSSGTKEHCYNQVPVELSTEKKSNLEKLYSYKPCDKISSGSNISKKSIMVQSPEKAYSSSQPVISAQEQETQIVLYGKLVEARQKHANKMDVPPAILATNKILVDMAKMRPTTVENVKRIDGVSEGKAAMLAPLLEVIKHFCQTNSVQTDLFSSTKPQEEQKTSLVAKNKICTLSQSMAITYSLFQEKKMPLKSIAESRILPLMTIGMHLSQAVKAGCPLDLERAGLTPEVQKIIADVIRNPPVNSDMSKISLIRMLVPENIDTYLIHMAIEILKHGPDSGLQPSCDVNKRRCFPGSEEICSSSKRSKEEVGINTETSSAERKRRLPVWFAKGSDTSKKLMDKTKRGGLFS

Row | half-life [1] | half-life [2] | pIC50 (recombinant human WRN) | pIC50 (SW48 cells) | SMILES | AUC(0-t) [3] | half-life [3] | Cmax [3] | pIC50 (RL95-2 cells) | efflux (in words) [4] | permeability (in words) [4] | efflux ratio at 120 min, 10 µM [5] | Papp A→B at 120 min, 10 µM [5] | Papp B→A at 120 min, 10 µM [5]
1 | 318 min | 657 min | > 9.00 | – | CCc1c(N2CCN(C(=O)c3ncnc(C)c3O)CC2)c(=O)n2nc(-c3ccc4occc4c3)nc2n1CC(=O)Nc1ccc(C(F)(F)F)cc1Cl [Example 67, 2-(2-(benzofuran-5-yl)-5-ethyl-6-(4-(5-hydroxy-6-methylpyrimidine-4-carbonyl)piperazin-1-yl)-7-oxo-[1,2,4]triazolo[1,5-a]pyrimidin-4(7H)-yl)-N-(2-chloro-4-(trifluoromethyl)phenyl)acetamide] | 83400 ng·h/mL | 0.66 h | 31400 ng/mL | 7.00 to 9.00 | – | – | – | – | –
2 | 200 min | 999 min | 7.00 to 9.00 | – | CCc1c(N2CCN(C(=O)c3ncnc(C)c3O)CC2)c(=O)n2nc(-c3ccc4c(c3)CCO4)nc2n1CC(=O)Nc1ccc(C(F)(F)F)cc1Cl [Example 76, N-(2-chloro-4-(trifluoromethyl)phenyl)-2-(2-(2,3-dihydrobenzofuran-5-yl)-5-ethyl-6-(4-(5-hydroxy-6-methylpyrimidine-4-carbonyl)piperazin-1-yl)-7-oxo-[1,2,4]triazolo[1,5-a]pyrimidin-4(7H)-yl)acetamide] | – | – | – | 7.00 to 9.00 | – | – | – | – | –
3 | 182 min | 705 min | > 9.00 | 7.00 to 9.00 | CCc1c(N2CCN(C(=O)c3ncnc(C)c3O)CC2)c(=O)n2nc(-c3ccc4ncsc4c3)nc2n1CC(=O)Nc1ccc(C(F)(F)F)cc1Cl [Example 125, 2-(2-(benzo[d]thiazol-6-yl)-5-ethyl-6-(4-(5-hydroxy-6-methylpyrimidine-4-carbonyl)piperazin-1-yl)-7-oxo-[1,2,4]triazolo[1,5-a]pyrimidin-4(7H)-yl)-N-(2-chloro-4-(trifluoromethyl)phenyl)acetamide] | – | – | – | 7.00 to 9.00 | – | – | – | – | –

Row | SMILES | half-life [1] | half-life [2] | pIC50 (recombinant human WRN) | pIC50 (SW48 cells) | AUC(0-t) [3] | half-life [3] | Cmax [3] | pIC50 (RL95-2 cells) | efflux (in words) [4] | permeability (in words) [4] | efflux ratio at 120 min, 10 µM [5] | Papp A→B at 120 min, 10 µM [5] | Papp B→A at 120 min, 10 µM [5]
4 | CCc1c(N2CCN(C(=O)c3ncnc(C)c3O)CC2)c(=O)n2nc(-c3ccc4ccoc4c3)nc2n1CC(=O)Nc1ccc(C(F)(F)F)cc1Cl [Example 68, 2-(2-(benzofuran-6-yl)-5-ethyl-6-(4-(5-hydroxy-6-methylpyrimidine-4-carbonyl)piperazin-1-yl)-7-oxo-[1,2,4]triazolo[1,5-a]pyrimidin-4(7H)-yl)-N-(2-chloro-4-(trifluoromethyl)phenyl)acetamide] | – | – | > 9.00 | – | 98900 ng·h/mL | 2.41 h | 17300 ng/mL | 7.00 to 9.00 | no significant efflux | moderate permeability | 1.1 | 4.64 ×10⁻⁶ cm/s | 5.09 ×10⁻⁶ cm/s
5 | CCc1c(N2CCN(C(=O)c3ncnc(C)c3O)CC2)c(=O)n2nc(C3=CCOCC3)nc2n1CC(=O)Nc1ccc(C(F)(F)F)cc1Cl [HRO761, reference compound] | 175 min | 483 min | – | – | 15600 ng·h/mL | 2.81 h | 7010 ng/mL | – | apparent potential efflux properties | moderate permeability | 3.65 | 3.96 ×10⁻⁶ cm/s | 14.5 ×10⁻⁶ cm/s
